# According to patent US20240254109A1, “SALT CONTAINING PIPERAZINE POLYCYCLIC DERIVATIVE, CRYSTAL FORM THEREOF, PREPARATION METHOD THEREFOR, AND USE THEREOF” (Shanghai Hansoh Biomedical Co., Ltd., priority 2021, published 2024):
# Columns and labels:
# [1] = Study on the crystal form of salt of compound (crystallization with counter ion acids); format: physicochemical; details: for Phenomenon: base: acid=1:1.2, 25° C.; for Phenomenon after the addition of acid / Results: volatilization method; for Phenomenon after the addition of acid: crystal form B of free base in tetrahydrofuran, base: acid=1:1.2; for Results: tetrahydrofuran volatilized at room temperature
# Description: To identify which counter ion acids can form crystal form of salt of compound by selecting different counter ion acids according to suitable crystallization methods.
# 1 mL of the solution was taken into a glass bottle, and different counter ion acids (molar reaction ratio of base: acid=1:1.2) were added, and then the glass bottle was opened at room temperature to volatile solvent. The amorphous or oily was pulped with 200 μL of ethyl acetate.
# 1) 10 mg of crystal form B of free base was weighed, and 200 μL of methanol solvent was added, and counter ion acid (molar reaction ratio of base: acid=1:1.2) was added respectively at 25° C.
# 2) 85 mg of crystal form B of free base was weighed, and ethyl acetate was added to produce a clear solution. Different counter ion acids (molar reaction ratio of base: acid=1:1.2) were added respectively at 25° C.
# [2] = Study on the salt form of compound (salt forming with counter ion acids); format: physicochemical; details: for Phenomenon after the addition of acid: acid 1:1.2, room temperature
# Description: To identify which counter ion acids can form salts with the compound by selecting different counter ion acids.
# 10 mg of free base was weighed. 200 μL of tetrahydrofuran was added. Different counter ion acids were added separately at room temperature, and the solvent was volatilized to dry. If a solid was precipitated during the reaction, the suspension was centrifuged, and the resulting solid was vacuum dried at 50° C. […] The resulting suspension was centrifuged and the supernatant was removed. The solid was dried in vacuum at 50° C.
# 10 mg of free base was weighed, and 200 μL of acetone was added. Different counter ion acids were added separately at room temperature, and the solvent was volatilized to dry. If a solid was precipitated, the resulting solid was dried in vacuum overnight at 50° C. […] The resulting suspension was centrifuged, and the supernatant was removed. The solid was dried in vacuum at 50° C.
# 10 mg of free base compound was weighed, and 100 μL of organic solvent was added to the suspension state. The corresponding acid was added according to the molar ratio of 1:1.2 at room temperature, and the reaction was stirred for 4d. The reaction was centrifuged, and the resulting solid was dried in vacuum at 50° C.
# [3] = free base suspended in 100 μL Isopropanol
# [4] = free base suspended in 100 μL Isopropanol, acid 1:1.2, stirred 4d
smiles,measurement,setting,value
O=C(O)/C=C/C(=O)O [0.25M fumaric acid in ethanol],Phenomenon,[1]; solvent Isopropyl ether,Turbid
CS(=O)(=O)O [Methanesulfonic acid (1 mol/L in EtOH)],Product,[2]; acetone volatilized to dry,Gel
same,After adding 200 μL of ethyl acetate,[2]; stirred 4 hours at room temperature,Gel
CC(=O)O [Acetic acid],Phenomenon after the addition of acid,[2]; [3],muddy
same,Product,[2]; [4],Salt forming
CC(=O)O [1.0M acetic acid (in methanol)],Phenomenon after the addition of acid,[1],Clear
same,Results,[1],Oil or gel
O=C(O)/C=C/C(=O)O [Fumaric acid],Phenomenon after the addition of acid,[2]; [3],muddy
same,Product,[2]; [4],Salt forming
Br [1.0M hydrobromic acid (in methanol)],Phenomenon after the addition of acid,[1],Clear
same,Results,[1],Oil or gel
CS(=O)(=O)O [1.0M methanesulfonic acid (in ethanol)],Phenomenon after the addition of acid,[1],Clear
same,Results,[1],Oil or gel
Cl [1.0M hydrochloric acid (in methanol)],Phenomenon,[1]; solvent 2-Butanone,Clear
same,Phenomenon,[1]; solvent 2-Methyl-tetrahydrofuran,Suspension
same,Phenomenon,[1]; solvent Acetone,Suspension
same,Phenomenon,[1]; solvent Ethanol,Clear
same,Phenomenon,[1]; solvent Ethyl acetate,Suspension
same,Phenomenon,[1]; solvent Ethyl formate,Precipitation
same,Phenomenon,[1]; solvent Isopropanol,Suspension
same,Phenomenon,[1]; solvent Isopropyl acetate,Suspension
same,Phenomenon,[1]; solvent Methyl tert-butyl ether,Suspension
same,Phenomenon after the addition of acid,[1],Clear
same,Results,[1],Oil or gel
